For one test, the system named is Human TLR7/8. In words: Human PBMC cell-based assay, TLR7/8 stimulus (RNA-Ig), cytokine ELISA. The note with it: primary human PBMC assay, TLR7/8 potency; ligand not given; read-out: Human PBMCs IC50. As for the experimental part: Human PBMC Cell-Based Assay. Human peripheral blood mononuclear cells (PBMC) were isolated from freshly-drawn heparinized (10 USP units/ml, Hospira, Lakeforest, Ill.) healthy donor whole blood by density gradient (Histopaque® 1077, Sigma, Inc., St. Louis, Mo.). Briefly, 25 ml blood was diluted with 15 ml PBS (without Ca^2+, Mg^2+) in a 50 ml conical tube, and 12 ml Histopaque was underlaid using a spinal needle. Tubes were centrifuged for 45 minutes at 1200 rpm (350×g), and PBMC were collected from the buffy coat. Cells were then washed twice in PBS, and red blood cells were lysed by suspension in 5 ml ammonium chloride solution (1× Red Blood Cell Lysis Buffer, eBioscience) for 5 minutes at room temperature. After a final wash in PBS, PBMC were resuspended at a final concentration of 2×10^6/ml in RPMI-1640 media with L-glutamine (Invitrogen) and supplemented with 25 mM HEPES (Mediatech, Inc, Manassas Va.), 10% fetal bovine serum (HyClone, Logan, Utah), and Penicillin-Streptomycin-Glutamine (Mediatech) and plated at 100 ul/well (2×10^5 cells/well) in tissue culture treated 96-well plates (Falcon).
Antagonist compounds solubilized and serial diluted in 100% DMSO were added in triplicate to cells to yield a final concentration of 0.1% DMSO (v/v). Hydroxychloroquine (Acros Organics) solubilized and serial diluted in PBS was added in triplicate to cells. PBMC were incubated with antagonist compounds or HCQ for 30 minutes at 37° C., 5% CO2 before adding various TLR agonist reagents in 100 ul complete media per well as follows (final concentrations indicated): R848 (Resiquimod; GLSynthesis, Worcester, Mass.) at 1 uM for TLR7 and TLR8, LPS (Sigma) at 10 ng/ml for TLR4, and CpG-2216 (InvivoGen) at 5 ug/ml for TLR9. To prepare a TLR7/8 agonist that mimics RNA-containing auto-antibody immune complexes in lupus patients, a 26-mer RNA with a sequence derived from human U1 snRNA stem loop IV [(sequence: […]-[…] (SEQ ID NO: 2) with phosphorothioate backbone] was synthesized (Dharmacon, Inc., Lafayette, Colo.), which has been shown previously to be a potent TLR7 and TLR8 agonist. This RNA molecule was diluted to 2.5 μM in serum-free RPMI, and mouse anti-human single stranded DNA monoclonal antibody (MAB3034, Millipore, Inc., Billerica, Mass.), which also cross-reacts with RNA, was added at a 1:25 dilution or at 1 ug/ml. The resulting “RNA-Ig” stimulus was incubated at room temperature for 15-30 minutes before adding to cells. PBMC were incubated with the various TLR agonists for 20 hours at 37° C., 5% CO2. Cell culture supernatants were collected, and levels of various human cytokines were assessed as indicated by standard ELISA procedure according to the manufacturer's recommended protocol (BD Biosciences, Inc., San Diego, Calif.). In a subsequent assay (Table 6) the ability of ER-899742 to block stimulation of normal PBMC by various TLR7/8 ligands, but not DNA-mediated activation of TLR9, was examined. In this assay cells were plated at 1×10^5 cells/well in 100 ul in 96-well plates.

The next test addresses T1, mouse TLR7 (Mus musculus, UniProt P58681).
T1 sequence (P58681 27-1050): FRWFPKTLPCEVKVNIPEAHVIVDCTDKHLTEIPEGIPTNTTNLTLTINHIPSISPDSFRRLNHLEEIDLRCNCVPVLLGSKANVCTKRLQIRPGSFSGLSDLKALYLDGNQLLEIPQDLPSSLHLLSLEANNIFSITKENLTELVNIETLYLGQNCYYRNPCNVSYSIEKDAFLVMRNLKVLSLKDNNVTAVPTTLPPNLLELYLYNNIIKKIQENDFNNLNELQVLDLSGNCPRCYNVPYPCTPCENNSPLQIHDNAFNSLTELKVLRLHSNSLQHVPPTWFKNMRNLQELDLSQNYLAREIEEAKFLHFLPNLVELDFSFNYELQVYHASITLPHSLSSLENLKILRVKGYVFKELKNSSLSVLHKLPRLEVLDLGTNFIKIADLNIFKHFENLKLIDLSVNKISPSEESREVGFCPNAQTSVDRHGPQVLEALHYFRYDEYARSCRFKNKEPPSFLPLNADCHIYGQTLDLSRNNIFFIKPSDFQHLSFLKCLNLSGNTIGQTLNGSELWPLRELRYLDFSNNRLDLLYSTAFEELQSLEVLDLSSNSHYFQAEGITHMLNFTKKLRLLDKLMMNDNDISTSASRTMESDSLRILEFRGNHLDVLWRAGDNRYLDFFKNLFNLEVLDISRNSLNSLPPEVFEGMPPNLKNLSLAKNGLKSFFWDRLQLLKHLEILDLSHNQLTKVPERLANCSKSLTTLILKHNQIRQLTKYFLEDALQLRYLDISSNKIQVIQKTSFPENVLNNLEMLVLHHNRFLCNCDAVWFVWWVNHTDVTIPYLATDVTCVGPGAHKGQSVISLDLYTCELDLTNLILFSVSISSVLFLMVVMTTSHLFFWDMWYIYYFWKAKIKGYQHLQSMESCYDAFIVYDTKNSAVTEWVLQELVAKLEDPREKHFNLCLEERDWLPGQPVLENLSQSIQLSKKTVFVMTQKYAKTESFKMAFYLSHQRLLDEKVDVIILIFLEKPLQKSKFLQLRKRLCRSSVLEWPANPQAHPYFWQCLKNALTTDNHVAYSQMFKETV
Briefly: Short-term in vivo (STIV) assay: oral dosing, R848 s.c., plasma IL-6. Further details: female BALB/c mice (Jackson Labs, Bar Harbor, Me.) were dosed by oral gavage; tissue Jackson Labs; host or cells: living female BALB/c mice; plasma IL-6 after s.c. R848. The protocol:
Figure Legend: Female BALB/c mice were dosed by oral gavage with Vehicle alone (0.5% aqueous methyl-cellulose) or compound formulated in Vehicle at 33 mg/kg, 100 mg/kg or 300 mg/kg. […] (FIG. 1A).
Short-term in vivo (STIV) assay: To assess compound potency in vivo against mouse TLR7, a short-term in vivo (STIV) assay was utilized. Briefly, mice were orally dosed with compounds and at various time points afterwards were injected subcutaneously with agonist R848 to stimulate TLR7. The plasma IL-6 level following R848 stimulation was then measured by ELISA to assess compound potency and duration-of-action.
Short-term in vivo (STIV) assay. Six to eight week old female BALB/c mice (Jackson Labs, Bar Harbor, Me.) were dosed by oral gavage in 200 ul volume with antagonist compounds formulated in 0.5% aqueous methyl-cellulose (Sigma, St. Louis, Mo.). At various time points afterwards, mice were injected subcutaneously (s.c.) in 100 ul volume with 15 ug R848 (Resiquimod; GLSynthesis, Worcester, Mass.) to stimulate TLR7.

Consider `C[C@@H]1CN(c2ccc(C#N)c3ncccc23)C[C@H](CN2CC(NS(C)(=O)=O)C2)O1` [ER-894154], for which, in the test on Human TLR7/8, the concentration for half-maximal inhibition (IC50) (usually the concentration that gives 50% inhibition) came to 143 nM.

Turning to `CC1CN(c2ccc(C#N)c3ncccc23)CC(CN2CC(N3CCC(N)CC3)C2)O1` (stereo not shown) [ER-892253], the IC50 in the test with Human TLR7/8 is 66 nM.

Turning to `CC1CN(c2ccc(C#N)c3ncccc23)CC(C(=O)NC2CCNC2)O1` (stereo not shown) [ER-897965], the IC50 in the test on Human TLR7/8 is 10 nM.

As to `CC1CN(c2ccc(C#N)c3ncccc23)CC(CN2CCCC2C)O1` (stereo not shown) [ER-886856], the IC50 in the test with Human TLR7/8 worked out at 111 nM.

As to `CC1CN(c2ccc(C#N)c3ncccc23)CC(CN2CCC(CO)CC2)O1` (stereo not shown) [ER-889557], the IC50 in the test with Human TLR7/8 was determined as 85 nM.

For `CCC[C@H]1CN(c2ccc(C#N)c3ncccc23)C[C@@H](C)O1` [ER-886131], the IC50 in the test with Human TLR7/8 was found to be 98 nM.

As to `CC1CN(c2ccc(C#N)c3ncccc23)CC(CN2CCN(c3ccccn3)CC2)O1` (stereo not shown) [ER-888285], the IC50 in the test with Human TLR7/8 stood at 14 nM.

`CC(C)C(=O)N[C@@H]1CCN(C[C@H]2CN(c3ccc(C#N)c4ncccc34)C[C@@H](C)O2)C1` [ER-890253]: the IC50 in the test on Human TLR7/8 turned out to be 64 nM.

Take `C[C@@H]1CN(c2ccc(C#N)c3ncccc23)C[C@H](CNc2ccccn2)O1` [ER-886788]: the “% Suppression vs. Vehicle” value is reported as 0% at mouse TLR7 (3 h, 33 mg/kg); 0% on mouse TLR7 (3 h, 100 mg/kg); 24% at mouse TLR7 (3 h, 300 mg/kg); 0% on mouse TLR7 (6 h, 33 mg/kg); 27% at mouse TLR7 (6 h, 100 mg/kg); 26% at mouse TLR7 (6 h, 300 mg/kg). The “% Suppression vs. Vehicle” value at mouse TLR7 (19 h, 33 mg/kg) is reported as 0%; on mouse TLR7 (19 h, 100 mg/kg), 17%; at mouse TLR7 (19 h, 300 mg/kg), 2%.

Take `CC1CN(c2ccc(C#N)c3ncccc23)CC(CN2CC(N3CCOCC3)C2)O1` (stereo not shown) [ER-890342]: the IC50 with Human TLR7/8 worked out at 121 nM.

As to `C[C@@H]1CN(c2ccc(C#N)c3ncccc23)C[C@H](CN)O1` [ER-884884], in the test on Human TLR7/8, the IC50 stood at 204 nM.

As to `CC1CN(c2ccc(C#N)c3ncccc23)CC(CN2C(C)CCCC2C)O1` (stereo not shown) [ER-886950], the IC50 in the test on Human TLR7/8 came out at 114 nM.

Regarding `CNCCNC(=O)C1CN(c2ccc(C#N)c3ncccc23)CC(C)O1` (stereo not shown) [ER-899140], the IC50 in the test with Human TLR7/8 was 11 nM.

With `CCn1c(C)nc2cc(NC[C@H]3CN(c4ccc(C#N)c5ncccc45)C[C@@H](C)O3)ccc21` [ER-886609], in the test on Human TLR7/8, the 50% inhibitory concentration (IC50) is 4 nM.

With `CC1CN(c2ccc(C#N)c3ncccc23)CC(C(=O)Nc2ccncc2)O1` (stereo not shown) [ER-899282], in the test on Human TLR7/8, the concentration for half-maximal inhibition (IC50) stood at 34 nM.

For `Cc1cc(CN2CCN(C)CC2)cc(-c2ccc(C#N)c3ncccc23)c1` [ER-888647], the half-maximal inhibitory concentration (IC50) in the test on Human TLR7/8 was found to be 12 nM.

Turning to `C[C@@H]1CN(c2ccc(C#N)c3ncccc23)C[C@H](C(=O)NC2(C)CCNCC2)O1` [ER-899718], the “% Suppression vs. Vehicle” value stood at 74% on mouse TLR7 (6 h, 100 mg/kg) and 51% on mouse TLR7 (13 h, 100 mg/kg).

Take `C[C@@H]1CN(c2ccc(C#N)c3ncccc23)C[C@H](C(=O)NC2(C)CCN(C)CC2)O1` [ER-899835]: the “% Suppression vs. Vehicle” value is on record as 99% at mouse TLR7 (6 h, 100 mg/kg) and 79% at mouse TLR7 (13 h, 100 mg/kg).

For `C[C@@H]1CN(c2ccc(C#N)c3ncccc23)C[C@H](CNC2CCCCC2)O1` [ER-886611], the “% Suppression vs. Vehicle” value on mouse TLR7 (3 h, 33 mg/kg) came to 90%; at mouse TLR7 (3 h, 100 mg/kg), 100%; on mouse TLR7 (3 h after oral dose, 11 mg/kg), 53%; on mouse TLR7 (6 h, 11 mg/kg), 0%; at mouse TLR7 (6 h, 33 mg/kg), 90%; on mouse TLR7 (6 h, 100 mg/kg), 100%. In addition, the “% Suppression vs. Vehicle” value at mouse TLR7 (19 h, 11 mg/kg) was 19%; on mouse TLR7 (19 h, 33 mg/kg), 0%; at mouse TLR7 (19 h, 100 mg/kg), 100%.

As to `CC(C)C(=O)NC1CN(C[C@H]2CN(c3ccc(C#N)c4ncccc34)C[C@@H](C)O2)C1` [ER-894206], the “% Suppression vs. Vehicle” value worked out at 96% on mouse TLR7 (3 h, 33 mg/kg); 85% on mouse TLR7 (6 h, 33 mg/kg); 98% on mouse TLR7 (6 h, 100 mg/kg); 42% at mouse TLR7 (13 h, 33 mg/kg); 77% on mouse TLR7 (13 h, 100 mg/kg).

As to `C[C@@H]1CN(c2ccc(C#N)c3ncccc23)C[C@H](CN2CCC(C(N)=O)CC2)O1` [ER-888320], the “% Suppression vs. Vehicle” value came to 100% on mouse TLR7 (3 h, 100 mg/kg); 78% at mouse TLR7 (6 h, 33 mg/kg); 94% at mouse TLR7 (6 h, 100 mg/kg); 9% on mouse TLR7 (13 h, 33 mg/kg); 31% on mouse TLR7 (13 h, 100 mg/kg).

As to `COc1cccnc1NC[C@H]1CN(c2ccc(C#N)c3ncccc23)C[C@@H](C)O1` [ER-886948], the “% Suppression vs. Vehicle” value at mouse TLR7 (3 h, 33 mg/kg) worked out at 46%; on mouse TLR7 (3 h, 100 mg/kg), 89%; on mouse TLR7 (3 h, 300 mg/kg) it was 100%; on mouse TLR7 (6 h, 33 mg/kg), 35%; at mouse TLR7 (6 h, 100 mg/kg), 44%; on mouse TLR7 (6 h, 300 mg/kg), 81%. Moreover, the “% Suppression vs. Vehicle” value on mouse TLR7 (19 h, 33 mg/kg) was determined as 0%; at mouse TLR7 (19 h, 100 mg/kg) it was 5%; on mouse TLR7 (19 h, 300 mg/kg), 49%.

As to `C[C@@H]1CN(c2ccc(C#N)c3ncccc23)C[C@H](CN2CCC(N3CCN(C)CC3)CC2)O1` [ER-890223], the “% Suppression vs. Vehicle” value is on record as 93% at mouse TLR7 (3 h, 33 mg/kg); 99% at mouse TLR7 (3 h, 100 mg/kg); 82% on mouse TLR7 (6 h, 33 mg/kg); 99% at mouse TLR7 (6 h, 100 mg/kg); 88% on mouse TLR7 (19 h, 100 mg/kg).

Values taken from USRE47193E1, “Selectively substituted quinoline compounds” (EISAI R&D MANAGEMENT CO., LTD., priority 2013, dated 2019).
